Data on two molecules can be found in publication PMC12797170, “Potent Competitive Inhibitors of Ecto-5′-nucleotidase (CD73) based on 6‑(Het)aryl-7-deazapurine Ribonucleoside 5′‑O‑Bisphosphonates” (ACS Pharmacology & Translational Science, 2025).

In the assay the test system is CD8+ T cells. Briefly: CD8+ T cell activation assay (CD25, IFN-γ, granzyme B). The format is cell-based, human. As to conditions: granzyme B and IFN-γ, 60 h. The protocol: 6 CD73 inhibition partially reverses the immunosuppressive effect of adenosine generated from AMP in CD8 ^ + T cells. CD8^+ T cells were activated using CD3/CD28 activation beads in the presence of 2.5 μM EHNA, with or without 1 mM AMP and CD73 inhibitors (500 nM or 50 nM). A. CD25 expression. The percentage of CD8^+ T cells expressing the activation marker CD25 was measured by flow cytometry 60 h after activation. Data represent technical triplicates. B. Cytokine secretion. Granzyme B and IFN-γ levels in the culture supernatant were quantified by ELISA 60 h after activation. The data represent technical duplicates from two independently treated wells.
Peripheral blood was obtained from healthy donors at the Military University Hospital Prague, following informed consent. CD8+ T cells were enriched using the RosetteSep Human CD8+ T Cell Enrichment Cocktail ([…] Technologies) according to the manufacturer’s instructions and subsequently isolated by density gradient centrifugation using SepMate tubes ([…] Technologies). Residual red blood cells were lysed using a red blood cell lysis buffer (155 mM NH4Cl, 12 mM NaHCO3, 0.1 mM EDTA, pH = 7.1–7.4). The isolated CD8+ T cells were resuspended in complete RPMI and counted using an automated cell counter.
CD8+ T cells were seeded at 5 × 10^4 cells/well in 50 μL of complete RPMI in a flat-bottom 96-well plate. […] This was followed by the addition of 10 μL of a CD73 inhibitor at either 5 μM or 500 nM (experimental wells) or 10 μL of complete RPMI (control wells). Subsequently, 20 μL of 5 mM AMP was added to all wells except those serving as controls for maximal T cell activation. […]
Following incubation, supernatants were collected for quantification of IFN-γ and granzyme B using ELISA. […] Finally, stained cells were washed and analyzed using a BD LSRFortessa flow cytometer. Data were processed and analyzed using FlowJo software (version 10.8.1) and GraphPad Prism 10.
Secretion of IFN-γ and granzyme B was quantified using Human IFN-γ DuoSet ELISA and Human Granzyme B DuoSet ELISA (R&D Systems) according to the manufacturer’s instructions. […]

As to `Cc1nc(-c2ccc3ccccc3c2)c2ccn([C@@H]3O[C@H](COP(=O)(O)CP(=O)(O)O)[C@@H](O)[C@H]3O)c2n1` [18E.7], the cytokine rescue efficacy entry is “weakest effects”.

As to `Cc1nc(-c2cccc3ccccc23)c2ccn([C@@H]3O[C@H](COP(=O)(O)CP(=O)(O)O)[C@@H](O)[C@H]3O)c2n1` [18E.6], the cytokine rescue efficacy entry is reported as “weakest effects”.
